Experimental data: ChEMBL document CHEMBL1201862, “PubChem BioAssay data set” (2004)
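A five-concentration, 48-hour dose response in 96-well plates underlies each endpoint, interpolated linearly between surrounding concentrations. Abbreviation: GI50, concentration required for 50% inhibition of growth.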 Activity calls are given as the source filed them. Cut-off read from the data, not from the text of the source: active = GI50 up to about 1.1 µM and inactive = higher.

What was measured:
Test in all cases: NCI anticancer screen, dose series, 48 h
[1] = tested on: 786-0
[2] = tested on: A498
[3] = tested on: A549
[4] = tested on: ACHN
[5] = tested on: BT-549
[6] = tested on: CAKI-1
[7] = tested on: CCRF-CEM
[8] = tested on: COLO 205
[9] = tested on: DU-145
[10] = tested on: EKVX
[11] = tested on: HCC 2998
[12] = tested on: HCT-116
[13] = tested on: HCT-15
[14] = tested on: HL-60
[15] = tested on: HOP-92
[16] = tested on: HT-29
[17] = tested on: Hs-578T
[18] = tested on: IGROV-1
[19] = tested on: K562
[20] = tested on: KM12
[21] = tested on: LOX IMVI
[22] = tested on: M14
[23] = tested on: MCF7
[24] = tested on: MDA-MB-231
[25] = tested on: MDA-MB-435
[26] = tested on: MDA-N
[27] = tested on: MOLT-4
[28] = tested on: Malme-3M
[29] = tested on: NCI-H23
[30] = tested on: NCI-H460
[31] = tested on: NCI-H522
[32] = tested on: NCI/ADR-RES
[33] = tested on: OVCAR-3
[34] = tested on: OVCAR-4
[35] = tested on: OVCAR-5
[36] = tested on: OVCAR-8
[37] = tested on: PC-3
[38] = tested on: RPMI-8226
[39] = tested on: RXF 393
[40] = tested on: SF-268
[41] = tested on: SF-295
[42] = tested on: SF-539
[43] = tested on: SK-MEL-28
[44] = tested on: SK-MEL-2
[45] = tested on: SK-MEL-5
[46] = tested on: SK-OV-3
[47] = tested on: SN12C
[48] = tested on: SNB-19
[49] = tested on: SNB-75
[50] = tested on: SW-620
[51] = tested on: T47D
[52] = tested on: TK-10
[53] = tested on: U-251
[54] = tested on: UACC-257
[55] = tested on: UACC-62
[56] = tested on: UO-31
[57] = tested on: HOP-62
[58] = tested on: NCI-H226
[59] = tested on: SR

Measured: GI50

O=C1c2cccc3cccc(c23)C(=O)N1O
inactive: [1] 49.9 µM | [2] > 100 µM | [3] 77.1 µM | [4] 71.8 µM | [5] > 100 µM | [6] 49.8 µM | [7] 18.5 µM | [8] > 100 µM | [9] 53.6 µM | [10] > 100 µM | [11] 75 µM | [12] 27.4 µM | [14] > 100 µM | [15] 25.7 µM | [16] 51.8 µM | [17] 53 µM | [18] 20.2 µM | [19] 36.7 µM | [20] 45.4 µM | [21] 53.2 µM | [22] 51.9 µM | [23] 37.5 µM | [24] > 100 µM | [25] > 100 µM | [26] 91.6 µM | [27] 69.7 µM | [28] > 100 µM | [29] 74.8 µM | [30] 29.2 µM | [31] 37.2 µM | [32] > 100 µM | [33] 57.4 µM | [34] 57.8 µM | [35] > 100 µM | [36] 56.6 µM | [37] 76.2 µM | [38] 45.6 µM | [39] 24 µM | [40] 70.5 µM | [41] 34.2 µM | [42] 50.9 µM | [43] > 100 µM | [44] 86.5 µM | [45] > 100 µM | [46] 68.2 µM | [47] 54.1 µM | [48] 95.1 µM | [49] 27.7 µM | [50] 14.5 µM | [51] > 100 µM | [52] > 100 µM | [53] 28.6 µM | [54] > 100 µM | [55] > 100 µM | [56] 70.1 µM
40.9 µM: [13]

O=[N+]([O-])c1ccc(NS(=O)(=O)C(F)(F)F)cc1
inactive: [1] > 100 µM | [2] > 100 µM | [3] > 100 µM | [4] > 100 µM | [5] > 100 µM | [6] > 100 µM | [7] 92.9 µM | [8] > 100 µM | [9] > 100 µM | [10] > 100 µM | [12] > 100 µM | [14] > 100 µM | [57] > 100 µM | [15] 36.6 µM | [16] > 100 µM | [17] > 100 µM | [18] 85.1 µM | [20] > 100 µM | [21] > 100 µM | [22] > 100 µM | [23] > 100 µM | [24] > 100 µM | [25] > 100 µM | [26] > 100 µM | [27] > 100 µM | [58] > 100 µM | [29] > 100 µM | [30] > 100 µM | [31] 22.1 µM | [32] > 100 µM | [33] > 100 µM | [34] > 100 µM | [35] > 100 µM | [36] > 100 µM | [37] > 100 µM | [39] > 100 µM | [40] > 100 µM | [41] > 100 µM | [42] > 100 µM | [43] > 100 µM | [44] > 100 µM | [45] > 100 µM | [46] > 100 µM | [47] > 100 µM | [48] > 100 µM | [49] > 100 µM | [50] > 100 µM | [51] > 100 µM | [52] > 100 µM | [53] > 100 µM | [54] > 100 µM | [55] > 100 µM | [56] > 100 µM
> 100 µM: [13]

Cc1nc(C)c(C(=O)NNC(=O)Cc2ccccc2)cc1C(=O)NNC(=O)Cc1ccccc1
inactive: [1] > 100 µM | [2] > 100 µM | [3] > 100 µM | [4] > 100 µM | [5] > 100 µM | [6] > 100 µM | [7] > 100 µM | [8] > 100 µM | [9] > 100 µM | [10] > 100 µM | [11] > 100 µM | [12] > 100 µM | [14] > 100 µM | [57] > 100 µM | [15] > 100 µM | [16] > 100 µM | [17] > 100 µM | [18] > 100 µM | [19] > 100 µM | [20] > 100 µM | [21] > 100 µM | [22] > 100 µM | [23] > 100 µM | [24] > 100 µM | [25] > 100 µM | [26] > 100 µM | [27] > 100 µM | [58] > 100 µM | [29] > 100 µM | [30] > 100 µM | [31] > 100 µM | [32] > 100 µM | [33] > 100 µM | [34] > 100 µM | [35] > 100 µM | [36] > 100 µM | [37] > 100 µM | [38] > 100 µM | [39] > 100 µM | [40] > 100 µM | [41] > 100 µM | [42] > 100 µM | [44] > 100 µM | [45] > 100 µM | [46] > 100 µM | [47] > 100 µM | [48] > 100 µM | [49] 94 µM | [50] > 100 µM | [51] > 100 µM | [52] > 100 µM | [53] > 100 µM | [54] > 100 µM | [55] > 100 µM | [56] > 100 µM
> 100 µM: [13]

O=C1/C(=C/c2ccc(Cl)cc2)N=C(c2ccccc2)N1c1nc2ccc(Sc3ccccc3)cc2[nH]1
inactive: [1] 25.9 µM | [2] 19.8 µM | [3] 36.1 µM | [4] 36.4 µM | [5] 21.7 µM | [6] 30.1 µM | [7] 22.4 µM | [8] 19.7 µM | [9] 35.3 µM | [10] 36.3 µM | [11] 17.4 µM | [12] 24.2 µM | [14] 15.8 µM | [57] 40.3 µM | [15] 45.9 µM | [16] 19.1 µM | [17] 29.2 µM | [18] 40.6 µM | [19] 17.5 µM | [20] 20.7 µM | [21] 23.9 µM | [22] 16.3 µM | [23] 22.6 µM | [24] 35.2 µM | [25] 10.2 µM | [26] 10.6 µM | [27] 25.3 µM | [28] 23.4 µM | [29] 30.1 µM | [30] 22.7 µM | [31] 22.4 µM | [32] 23.6 µM | [33] 35.8 µM | [34] 34.7 µM | [35] 25.6 µM | [36] 30.1 µM | [37] 30.6 µM | [38] 19.7 µM | [39] 26.3 µM | [40] 36.3 µM | [41] 25.9 µM | [43] 23.4 µM | [44] 15.6 µM | [45] 15.5 µM | [46] 41.4 µM | [47] 29 µM | [48] 37.6 µM | [49] 15.8 µM | [50] 23.7 µM | [51] 23.1 µM | [52] 23.8 µM | [53] 31.3 µM | [54] 22.3 µM | [55] 14 µM | [56] 34.8 µM
29.2 µM: [13]

CC(C(=O)O)c1ccc(-c2ccccc2)c(F)c1 (stereo not drawn) [FLURBIPROFEN]
inactive: [1] > 100 µM | [3] > 100 µM | [4] > 100 µM | [5] > 100 µM | [6] > 100 µM | [7] > 100 µM | [8] > 100 µM | [9] > 100 µM | [10] > 100 µM | [11] > 100 µM | [12] > 100 µM | [14] > 100 µM | [57] > 10 µM | [15] > 100 µM | [16] > 100 µM | [17] > 100 µM | [18] > 100 µM | [19] > 100 µM | [20] > 100 µM | [21] > 100 µM | [22] > 100 µM | [23] > 100 µM | [24] > 100 µM | [25] > 100 µM | [26] > 100 µM | [27] > 100 µM | [28] > 100 µM | [58] > 100 µM | [30] > 100 µM | [31] > 100 µM | [32] > 100 µM | [34] > 100 µM | [35] > 100 µM | [36] > 100 µM | [37] > 100 µM | [38] > 100 µM | [39] > 100 µM | [40] > 100 µM | [41] > 100 µM | [42] > 100 µM | [43] > 100 µM | [44] > 100 µM | [45] > 100 µM | [46] > 100 µM | [47] > 100 µM | [48] > 100 µM | [49] > 100 µM | [59] > 100 µM | [50] > 100 µM | [51] > 100 µM | [52] > 100 µM | [53] > 100 µM | [54] > 100 µM | [55] > 100 µM | [56] > 100 µM
> 100 µM: [13]
